The record followed here is patent US11034839B2, “Compounds, linked with haptens, for the detection of senescent cells” (THE UNIVERSITY OF MANCHESTER, priority 2016, dated 2021).

In this experiment the test system is senescent cells in irradiated human laryngeal tumors, palbociclib treated human melanoma cell xenografts, mouse bleomycin-injected lung, mouse lung adenomas. As to the kind of experiment: Streptavidin-HRP/DAB labeling of tissue sections. As to conditions: FIG. 5ai-di in comparison to FIGS. 2,3,4. An excerpt:
In the inventive example 2, the derivative LG13 was used to detect senescent cells in tissue sections using streptavidin-horse radish peroxidase (HRP)/DAB labeling.
Tissue sections were obtained from paraffin embedded, formalin fixed: (a) irradiated human laryngeal tumors, (b) palbociclib treated human melanoma cell xenografts, (c) mouse bleomycin-injected lung and (d) mouse lung adenomas. Subsequently, they were immobilized on glass microscopy slides by standard procedures and processed as follows: • a. Deparaffinization for 5 min at room temperature in xylene • b. Gradual rehydration in solutions of descending concentration of ethanol (100%, 80%, 70%, 50% v/v) and finally in TBS (Tris-buffered saline) or PBS (Phosphate-buffered saline) solution. • c. Blocking of endogenous peroxidase activity with 3% H2O2 for 10 min. • d. Gradual dehydration of biopsy material in 50% (v/v) ethanol followed by 70% (v/v) ethanol for 5 min each step. • e. Application of the new compound LG13, linked with biotin, diluted in ethanol and filtered, on biopsy material for 10 min. • f. Quick wash in 50% (v/v) ethanol. • g. Transfer and wash in TBS or PBS solution. • h. Incubation in streptavidin-HRP (horse radish peroxidase) conjugated (dilution 1/200), for ½ hr at room temperature. • i. Quick wash in TBS or PBS solution. • j. […]

In the case of `CC1(COC(=O)CCCC[C@H]2SC[C@H]3NC(=O)N[C@H]32)Nc2cccc3c(/N=N/c4ccc(/N=N/c5ccccc5)c5ccccc45)ccc(c23)N1` (stereo partly drawn) [LG13, (2-methyl-6-((E)-(4-((E)-phenyldiazenyl)naphthalen-1-yl)diazenyl)-2,3-dihydro-1H-perimidin-2-yl)methyl 5-((3aR,4R,6aS)-2-oxohexahydro-1H-thieno[3,4-d]imidazol-4-yl)pentanoate], the “recognition of senescent cells compared to histochemical staining” value is recorded as “makes easier the recognition of senescent cells”.
